Reference: US12209071B2, “Triazine derivatives for treating diseases relating to neurotrophins” (AlzeCure Pharma AB, priority 2018, dated 2025)

How the values were obtained:
[1] = molecular target: T1, FGFR1 (Homo sapiens, UniProt P11362); assay: Enzyme Fragment Complementation cell-based assay, FGFR1; conditions: cryopreserved U2OS-cells expressing FGFR1; ligand 10 ng/mL; 3 hours incubation
T1 construct: expressed in transfected cells; host or cells: U2OS (cryopreserved)
Text: (§1) A high throughput cell-based screen has been used to identify positive modulators of TrkA, TrkB and TrkC. The screen involves the use of cell-based assay overexpressing TrkA, TrkB or TrkC. The purpose of the assay is to identify compounds that modulate neurotrophin signalling (Forsell et al 2012). The assay can be used in inhibitor mode using a high concentration of ligand, in modulator mode using an intermediate concentration and in agonist mode using a low concentration of ligand.
(§2) The assay uses Enzyme Fragment Complementation (EFC) technique, which is a proximity-based assay. Briefly, cells used in this assay over-express two fusion proteins, i.e. the receptor, which can be either one of TrkA, TrkB, TrkC, IGF1R or FGFR1, fused to a small peptide of beta-galactosidase and an adaptor protein, i.e. SHC1 (or any other Trk-adaptor protein) fused to the major part of beta-galactosidase. […] The proximity between the small activating peptide on the receptor and the major part of beta-galactosidase on the adaptor protein leads to an active beta-galactosidase enzyme. The activation of the receptor is quantified by measuring the amount of active beta-galactosidase by its conversion of a non-luminescent substrate into a luminescent product.
(§3) U2OS-cells, over-expressing TrkA or TrkB or TrkC, are plated in 96- or 384-well plates and incubated overnight. Alternatively, cryopreserved HEK293-cells expressing IGFR1 or cryopreserved U2OS-cells expressing FGFR1 were plated in 96- or 384-well plates. On the following day, test compound was pre-mixed with ligand (NGF, BDNF, NT-3, IGF-1 or basic fibroblast growth factor (bFGF(FGF-2))) and the ligand-compound mixture is then added to the cells to yield a final ligand concentration of 10 ng/mL. After 3 hours of incubation at room temperature, the incubation is stopped by the addition of a beta-galactosidase substrate mixture containing detergents. The substrate mixture is incubated for 60 minutes at ambient temperature. The luminescence is thereafter read by the use of a plate reader.

[2] = molecular target: T2, TrkA (Homo sapiens, UniProt P04629); assay: Enzyme Fragment Complementation cell-based assay, TrkA; conditions: U2OS-cells over-expressing TrkA; ligand 10 ng/mL; 3 hours incubation
T2 construct: expressed in transfected cells; host or cells: U2OS
Text: as §1, §2, §3

[3] = molecular target: T3, TrkB (Homo sapiens, UniProt Q16620); assay: Enzyme Fragment Complementation cell-based assay, TrkB; conditions: U2OS-cells over-expressing TrkB; ligand 10 ng/mL; 3 hours incubation
T3 construct: expressed in transfected cells; host or cells: U2OS
Text: as §1, §2, §3

[4] = molecular target: T4, IGF1R (Homo sapiens, UniProt P08069); assay: Enzyme Fragment Complementation cell-based assay, IGF1R; conditions: cryopreserved HEK293-cells expressing IGFR1; ligand 10 ng/mL; 3 hours incubation
T4 construct: expressed in transfected cells; host or cells: HEK293 (cryopreserved)
Text: as §1, §2, §3

[5] = molecular target: T5, TrkC (Homo sapiens, UniProt Q16288); assay: Enzyme Fragment Complementation cell-based assay, TrkC; conditions: U2OS-cells over-expressing TrkC; ligand 10 ng/mL; 3 hours incubation
T5 construct: expressed in transfected cells; host or cells: U2OS
Text: as §1, §2, §3

T2 sequence (P04629 33-796): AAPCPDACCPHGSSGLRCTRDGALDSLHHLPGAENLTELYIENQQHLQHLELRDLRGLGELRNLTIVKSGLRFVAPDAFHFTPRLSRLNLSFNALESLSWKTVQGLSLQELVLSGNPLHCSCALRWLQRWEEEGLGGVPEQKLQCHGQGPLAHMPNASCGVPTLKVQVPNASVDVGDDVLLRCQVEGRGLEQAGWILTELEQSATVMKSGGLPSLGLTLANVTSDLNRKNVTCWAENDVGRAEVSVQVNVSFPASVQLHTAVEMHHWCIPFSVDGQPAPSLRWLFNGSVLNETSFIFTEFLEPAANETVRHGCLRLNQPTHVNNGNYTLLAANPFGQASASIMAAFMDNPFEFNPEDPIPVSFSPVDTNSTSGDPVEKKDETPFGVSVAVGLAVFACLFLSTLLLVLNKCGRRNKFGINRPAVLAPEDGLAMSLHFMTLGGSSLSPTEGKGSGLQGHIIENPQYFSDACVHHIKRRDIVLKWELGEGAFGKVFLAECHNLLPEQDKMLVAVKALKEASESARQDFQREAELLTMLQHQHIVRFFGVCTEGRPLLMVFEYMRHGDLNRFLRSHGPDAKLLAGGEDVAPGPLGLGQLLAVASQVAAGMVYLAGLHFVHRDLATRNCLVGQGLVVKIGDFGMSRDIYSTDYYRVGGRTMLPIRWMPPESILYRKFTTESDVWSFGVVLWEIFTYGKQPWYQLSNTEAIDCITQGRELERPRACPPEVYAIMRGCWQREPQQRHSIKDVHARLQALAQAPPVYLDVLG
T1 sequence (P11362 22-822): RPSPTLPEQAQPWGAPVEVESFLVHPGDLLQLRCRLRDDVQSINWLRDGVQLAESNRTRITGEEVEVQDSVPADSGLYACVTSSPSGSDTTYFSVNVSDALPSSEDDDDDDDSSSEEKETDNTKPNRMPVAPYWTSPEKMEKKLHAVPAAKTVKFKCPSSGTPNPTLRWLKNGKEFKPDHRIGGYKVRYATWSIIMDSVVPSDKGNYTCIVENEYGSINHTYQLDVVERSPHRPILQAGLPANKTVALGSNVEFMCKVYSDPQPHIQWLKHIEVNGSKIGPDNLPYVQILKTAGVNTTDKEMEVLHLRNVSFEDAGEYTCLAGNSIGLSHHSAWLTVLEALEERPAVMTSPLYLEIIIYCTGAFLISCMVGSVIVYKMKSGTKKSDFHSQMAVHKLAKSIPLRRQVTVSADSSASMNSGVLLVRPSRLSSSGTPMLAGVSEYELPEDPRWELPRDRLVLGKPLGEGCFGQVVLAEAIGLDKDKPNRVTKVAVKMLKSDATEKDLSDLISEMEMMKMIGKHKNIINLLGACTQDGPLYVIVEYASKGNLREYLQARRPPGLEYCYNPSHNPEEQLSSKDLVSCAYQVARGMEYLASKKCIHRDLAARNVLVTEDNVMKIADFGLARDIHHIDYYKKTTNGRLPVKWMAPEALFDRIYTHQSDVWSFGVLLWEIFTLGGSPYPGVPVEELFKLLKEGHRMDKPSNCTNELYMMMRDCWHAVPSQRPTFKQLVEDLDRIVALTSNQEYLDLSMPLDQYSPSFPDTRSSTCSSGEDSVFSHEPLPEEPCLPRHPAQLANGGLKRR
T5 sequence (Q16288 32-839): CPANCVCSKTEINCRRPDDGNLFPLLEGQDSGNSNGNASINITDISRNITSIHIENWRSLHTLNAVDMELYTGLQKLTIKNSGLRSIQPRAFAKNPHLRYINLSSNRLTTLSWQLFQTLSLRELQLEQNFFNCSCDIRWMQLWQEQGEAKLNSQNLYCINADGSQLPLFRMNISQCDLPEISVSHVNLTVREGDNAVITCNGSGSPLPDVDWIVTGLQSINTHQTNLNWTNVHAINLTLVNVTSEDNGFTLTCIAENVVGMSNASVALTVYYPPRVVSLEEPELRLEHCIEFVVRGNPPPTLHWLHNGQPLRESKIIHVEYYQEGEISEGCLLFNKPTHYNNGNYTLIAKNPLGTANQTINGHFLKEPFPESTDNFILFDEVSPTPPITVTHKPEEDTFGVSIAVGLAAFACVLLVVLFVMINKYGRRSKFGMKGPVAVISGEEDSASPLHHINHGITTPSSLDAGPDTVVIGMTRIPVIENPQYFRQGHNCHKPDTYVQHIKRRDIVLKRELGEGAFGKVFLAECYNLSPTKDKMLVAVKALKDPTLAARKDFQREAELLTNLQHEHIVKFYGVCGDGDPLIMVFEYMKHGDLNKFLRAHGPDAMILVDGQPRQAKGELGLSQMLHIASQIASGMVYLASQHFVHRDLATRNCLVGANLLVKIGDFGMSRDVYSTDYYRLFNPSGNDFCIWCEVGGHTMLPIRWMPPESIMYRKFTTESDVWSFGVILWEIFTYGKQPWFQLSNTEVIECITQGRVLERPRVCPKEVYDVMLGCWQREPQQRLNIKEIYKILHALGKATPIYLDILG
T4 sequence (P08069 31-736 limits assumed): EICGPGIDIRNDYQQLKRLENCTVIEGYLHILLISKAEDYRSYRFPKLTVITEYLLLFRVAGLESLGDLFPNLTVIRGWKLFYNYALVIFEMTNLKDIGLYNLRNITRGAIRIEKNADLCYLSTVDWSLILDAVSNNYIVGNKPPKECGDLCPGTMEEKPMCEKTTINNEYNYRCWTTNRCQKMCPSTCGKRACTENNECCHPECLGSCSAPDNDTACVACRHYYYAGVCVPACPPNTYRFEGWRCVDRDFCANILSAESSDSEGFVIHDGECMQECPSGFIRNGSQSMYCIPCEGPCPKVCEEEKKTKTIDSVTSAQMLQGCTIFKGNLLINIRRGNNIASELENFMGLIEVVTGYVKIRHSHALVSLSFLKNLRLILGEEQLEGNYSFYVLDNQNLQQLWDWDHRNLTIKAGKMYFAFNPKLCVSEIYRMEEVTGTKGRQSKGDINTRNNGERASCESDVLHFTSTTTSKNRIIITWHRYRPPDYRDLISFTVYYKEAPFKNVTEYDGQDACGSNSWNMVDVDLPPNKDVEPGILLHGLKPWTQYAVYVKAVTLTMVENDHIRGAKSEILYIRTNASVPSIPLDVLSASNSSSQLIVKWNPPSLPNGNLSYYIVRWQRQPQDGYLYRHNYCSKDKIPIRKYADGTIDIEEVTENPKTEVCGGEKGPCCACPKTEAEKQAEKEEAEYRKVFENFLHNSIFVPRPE
T4 sequence (P08069 741-1367 limits assumed): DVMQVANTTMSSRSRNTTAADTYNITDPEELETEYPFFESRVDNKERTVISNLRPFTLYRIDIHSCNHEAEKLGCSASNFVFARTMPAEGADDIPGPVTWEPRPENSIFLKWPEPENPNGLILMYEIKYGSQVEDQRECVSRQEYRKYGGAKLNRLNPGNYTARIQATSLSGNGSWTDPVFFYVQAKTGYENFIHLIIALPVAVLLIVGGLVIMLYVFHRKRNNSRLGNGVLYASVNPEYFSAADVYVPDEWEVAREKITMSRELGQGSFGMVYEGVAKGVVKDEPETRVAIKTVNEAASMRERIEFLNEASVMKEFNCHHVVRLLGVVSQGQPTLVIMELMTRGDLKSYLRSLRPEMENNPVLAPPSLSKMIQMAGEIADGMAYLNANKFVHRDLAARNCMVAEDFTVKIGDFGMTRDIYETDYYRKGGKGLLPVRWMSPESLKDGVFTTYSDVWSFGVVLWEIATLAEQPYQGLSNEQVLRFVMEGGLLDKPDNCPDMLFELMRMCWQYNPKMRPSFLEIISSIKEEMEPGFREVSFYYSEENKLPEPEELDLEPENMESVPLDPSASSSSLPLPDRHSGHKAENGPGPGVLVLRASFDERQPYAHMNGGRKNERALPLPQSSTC
T3 sequence (Q16620 32-822): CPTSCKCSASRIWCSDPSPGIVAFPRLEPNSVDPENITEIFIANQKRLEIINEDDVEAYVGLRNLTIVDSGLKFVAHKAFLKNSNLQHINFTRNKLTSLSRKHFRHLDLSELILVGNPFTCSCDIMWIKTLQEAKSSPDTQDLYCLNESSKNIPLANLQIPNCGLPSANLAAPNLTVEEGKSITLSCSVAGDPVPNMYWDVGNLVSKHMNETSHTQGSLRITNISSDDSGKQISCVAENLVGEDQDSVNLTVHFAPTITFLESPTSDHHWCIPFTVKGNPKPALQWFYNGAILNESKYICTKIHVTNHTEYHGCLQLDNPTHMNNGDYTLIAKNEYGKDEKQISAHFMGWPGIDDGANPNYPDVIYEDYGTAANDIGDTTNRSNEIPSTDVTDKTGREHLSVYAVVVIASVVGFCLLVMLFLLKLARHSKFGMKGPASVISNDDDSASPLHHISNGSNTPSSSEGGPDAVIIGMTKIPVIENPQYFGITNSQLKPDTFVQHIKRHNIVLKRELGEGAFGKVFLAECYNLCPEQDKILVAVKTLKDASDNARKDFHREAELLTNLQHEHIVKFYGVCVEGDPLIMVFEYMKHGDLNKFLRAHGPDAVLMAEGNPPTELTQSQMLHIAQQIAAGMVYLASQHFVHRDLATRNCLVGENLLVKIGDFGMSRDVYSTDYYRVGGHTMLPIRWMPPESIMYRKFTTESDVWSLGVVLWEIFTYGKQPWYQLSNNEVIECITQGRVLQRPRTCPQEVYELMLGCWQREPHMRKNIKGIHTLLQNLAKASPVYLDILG

Compound | EC50 [1] [nM] | EC50 [2] [nM] | EC50 [3] [nM] | EC50 [4] [nM] | EC50 [5] [nM]
COc1cccc(-n2c(=O)[nH]c(=O)n(-c3ccc(Oc4ccccc4)cc3)c2=O)c1 [Example 4, 1-(3-methoxyphenyl)-3-(4-phenoxyphenyl)-1,3,5-triazinane-2,4,6-trione] | 580 | 830 | 950 | 840 | 
O=c1[nH]c(=O)n(-c2ccc(OCc3ccccc3)cc2)c(=O)n1-c1ccccc1 [Example 6, 1-[4-(benzyloxy)phenyl]-3-phenyl-1,3,5-triazinane-2,4,6-trione] |  | 4400 |  | 4400 | 
O=c1[nH]c(=O)n(-c2ccc(Oc3ccc(Cl)cc3)cc2)c(=O)n1-c1ccccc1 [Example 7, 1-[4-(4-chlorophenoxy)phenyl]-3-phenyl-1,3,5-triazinane-2,4,6-trione] |  | 3900 |  | 2600 | 
N#Cc1ccc(Oc2ccc(-n3c(=O)[nH]c(=O)n(-c4ccccc4)c3=O)cc2)cc1 [Example 8, 4-[4-(2,4,6-trioxo-3-phenyl-1,3,5-triazinan-1-yl)phenoxy]benzonitrile] |  | 1600 |  | 2200 | 
O=c1[nH]c(=O)n(-c2ccc(N3CCOCC3)cc2)c(=O)n1-c1ccc(Oc2ccccc2)cc1 [Example 10, 1-[4-(morpholin-4-yl)phenyl]-3-(4-phenoxyphenyl)-1,3,5-triazinane-2,4,6-trione] | 2800 | 1100 | 2200 |  | 
N#Cc1cc(-n2c(=O)[nH]c(=O)n(-c3ccccc3)c2=O)ccc1Oc1ccccc1 [Example 12, 2-phenoxy-5-(2,4,6-trioxo-3-phenyl-1,3,5-triazinan-1-yl)benzonitrile] | 4700 | 5900 | 2400 |  | 
O=c1[nH]c(=O)n(-c2ccc(Oc3ccccc3)c(OCC3COC3)c2)c(=O)n1-c1ccccc1 [Example 25, 1-[3-(oxetan-3-ylmethoxy)-4-phenoxyphenyl]-3-phenyl-1,3,5-triazinane-2,4,6-trione] |  | 550 | 790 |  | 1000
CC(C)Oc1cc(-n2c(=O)[nH]c(=O)n(C)c2=O)ccc1Oc1ccccc1 [Example 26, 1-methyl-3-[4-phenoxy-3-(propan-2-yloxy)phenyl]-1,3,5-triazinane-2,4,6-trione] |  | 1100 | 1500 |  | 2000
COCCOc1cc(-n2c(=O)[nH]c(=O)n(C)c2=O)ccc1Oc1ccccc1 [Example 28, 1-[3-(2-methoxyethoxy)-4-phenoxyphenyl]-3-methyl-1,3,5-triazinane-2,4,6-trione] |  | 1000 | 990 |  | 520
COCCOc1cc(-n2c(=O)[nH]c(=O)n(-c3ccccc3)c2=O)ccc1Oc1ccccc1 [Example 29, 1-[3-(2-methoxyethoxy)-4-phenoxyphenyl]-3-phenyl-1,3,5-triazinane-2,4,6-trione] |  | 560 | 500 |  | 340
Cn1c(=O)[nH]c(=O)n(-c2ccc(Oc3ccccc3)c(OCc3ccccc3)c2)c1=O [Example 30, 1-[3-(benzyloxy)-4-phenoxyphenyl]-3-methyl-1,3,5-triazinane-2,4,6-trione] |  | 1100 | 7500 |  | 890
Cc1cc(-n2c(=O)[nH]c(=O)n(-c3ccccc3)c2=O)ccc1Sc1ccccc1 [Example 34, 1-[3-methyl-4-(phenylsulfanyl)phenyl]-3-phenyl-1,3,5-triazinane-2,4,6-trione] |  | 1600 | 2000 |  | 1200
Cc1cn(-c2ccccc2)c2ccc(-n3c(=O)[nH]c(=O)n(-c4ccccc4)c3=O)cc12 [Example 35, 1-(3-Methyl-1-phenyl-1H-indol-5-yl)-3-phenyl-1,3,5-triazinane-2,4,6-trione] |  | 980 | 260 |  | 500
Cc1cn(Cc2ccccc2)c2ccc(-n3c(=O)[nH]c(=O)n(-c4ccccc4)c3=O)cc12 [Example 36, 1-(1-Benzyl-3-methyl-1H-indol-5-yl)-3-phenyl-1,3,5-triazinane-2,4,6-trione] |  | 950 | 460 |  | 1500
Cc1cn(Cc2ccccc2)c2ccc(-n3c(=O)[nH]c(=O)n(C)c3=O)cc12 [Example 38, 1-(1-benzyl-3-methyl-1H-indol-5-yl)-3-methyl-1,3,5-triazinane-2,4,6-trione] |  | 4500 | 4200 |  | 2400
O=c1[nH]c(=O)n(-c2ccc(Oc3ccccc3)c(Cl)c2)c(=O)n1-c1ccccc1 [Example 39, 1-(3-chloro-4-phenoxyphenyl)-3-phenyl-1,3,5-triazinane-2,4,6-trione] |  | 1400 | 680 |  | 880
Cn1c(=O)[nH]c(=O)n(-c2ccc(Oc3ccc(Cl)cc3)cc2)c1=O [Example 64, 1-[4-(4-chlorophenoxy)phenyl]-3-methyl-1,3,5-triazinane-2,4,6-trione] |  | 4400 | 5900 |  | 9600
Cn1c(=O)[nH]c(=O)n(-c2ccc(Oc3ccccc3)c(Cl)c2)c1=O [Example 65, 1-(3-chloro-4-phenoxyphenyl)-3-methyl-1,3,5-triazinane-2,4,6-trione] |  | 4500 | 1600 |  | 320

Now those with a lower EC50 [2], led by results:

EC50 [1] [nM] | EC50 [2] [nM] | EC50 [3] [nM] | EC50 [4] [nM] | EC50 [5] [nM] | Compound
 | 360 | 370 |  | 330 | CC(C)Oc1cc(-n2c(=O)[nH]c(=O)n(-c3ccccc3)c2=O)ccc1Oc1ccccc1 [Example 27, 1-[4-phenoxy-3-(propan-2-yloxy)phenyl]-3-phenyl-1,3,5-triazinane-2,4,6-trione]
 | 260 | 280 |  | 140 | Cc1ccc(-n2c(=O)[nH]c(=O)n(-c3ccc(Oc4ccccc4)c(C)c3)c2=O)s1 [Example 40, 1-(3-methyl-4-phenoxyphenyl)-3-(5-methylthiophen-2-yl)-1,3,5-triazinane-2,4,6-trione]
 | 250 | 210 |  | 140 | Cc1ccc(-n2c(=O)[nH]c(=O)n(-c3ccc(Oc4ccccc4)c(C)c3)c2=O)cc1 [Example 41, 1-(3-methyl-4-phenoxyphenyl)-3-(4-methylphenyl)-1,3,5-triazinane-2,4,6-trione]
 | 190 | 790 |  | 2000 | Cc1cc(-n2c(=O)[nH]c(=O)n(-c3cccc4[nH]ccc34)c2=O)ccc1Oc1ccccc1 [Example 49, 1-(1H-indol-4-yl)-3-(3-methyl-4-phenoxyphenyl)-1,3,5-triazinane-2,4,6-trione]
 | 290 | 110 |  | 170 | COCCOc1cc(-n2c(=O)[nH]c(=O)n(-c3ccc(C)cc3)c2=O)ccc1Oc1ccccc1 [Example 56, 1-[3-(2-methoxyethoxy)-4-phenoxyphenyl]-3-(4-methylphenyl)-1,3,5-triazinane-2,4,6-trione]
 | 180 | 120 |  | 90 | COCCOc1cc(-n2c(=O)[nH]c(=O)n(-c3cccc(C)c3)c2=O)ccc1Oc1ccccc1 [Example 57, 1-[3-(2-methoxyethoxy)-4-phenoxyphenyl]-3-(3-methylphenyl)-1,3,5-triazinane-2,4,6-trione]
 | 220 | 230 |  | 180 | COCCOc1cc(-n2c(=O)[nH]c(=O)n(-c3cccc(Cl)c3)c2=O)ccc1Oc1ccccc1 [Example 58, 1-(3-chlorophenyl)-3-[3-(2-methoxyethoxy)-4-phenoxyphenyl]-1,3,5-triazinane-2,4,6-trione]
 | 480 | 460 |  | 330 | COCCOc1cc(-n2c(=O)[nH]c(=O)n(-c3ccc(Cl)cc3)c2=O)ccc1Oc1ccccc1 [Example 59, 1-(4-chlorophenyl)-3-[3-(2-methoxyethoxy)-4-phenoxyphenyl]-1,3,5-triazinane-2,4,6-trione]
 | 230 | 360 |  | 1100 | Cc1cc(-n2c(=O)[nH]c(=O)n(-c3cnn(-c4ccccc4)c3)c2=O)ccc1Oc1ccccc1 [Example 68, 1-(3-methyl-4-phenoxyphenyl)-3-(1-phenyl-1H-pyrazol-4-yl)-1,3,5-triazinane-2,4,6-trione]
 | 220 | 250 |  | 190 | O=c1[nH]c(=O)n(-c2ccc(Oc3ccccc3)c(Br)c2)c(=O)n1-c1ccccc1 [Example 69, 1-(3-bromo-4-phenoxyphenyl)-3-phenyl-1,3,5-triazinane-2,4,6-trione]
